From patent US11840708B2, “Isogenic blood-brain barrier model” (Wisconsin Alumni Research Foundation, priority 2016, dated 2023)
Read-outs that look alike come from different tables or passages of the source.

Key:
[1] = Sodium fluorescein permeability across iPSC-derived BMEC monolayer on Transwell; format: in vitro ADME, human; conditions: human, 48 h
Procedure: (§1) Permeability Measurements—Sodium fluorescein (10 μM, 376 Daltons; Sigma) was utilized to determine the permeability of the iPSC-BMEC barrier. Following 48 h of monoculture or co-culture, fresh EC medium was added to the Transwell system, with EC medium containing sodium fluorescein added to the top chamber and EC medium lacking sodium fluorescein added to the bottom chamber. 150 uL aliquots were taken from the bottom chamber at 0, 15, 30, 45, and 60 min, and immediately replaced with pre-warmed EC medium. Permeability coefficients were calculated based on the cleared volume of fluorescein from the top chamber to the bottom chamber.

[2] = system: iPSC-derived BMECs; assay: as above; format: in vitro ADME, human; conditions: CS03iCTRn2-derived BMECs
Procedure: as §1

O=C1OC2(c3ccc(O)cc3Oc3cc(O)ccc32)c2ccccc21 [sodium fluorescein, Sodium fluorescein]
Papp at 60 min, 10 μM ([1]; IMR90-4 iPSC-derived BMECs co-cultured with EZ-sphere-derived neurons and astrocytes (1:3), read-out: sodium fluorescein permeability Pe): 0.12 ± 0.001 ×10⁻⁶ cm/s
Papp at 60 min, 10 μM ([1]; IMR90-4 iPSC-derived BMECs co-cultured with NPC-derived astrocytes and neurons, read-out: sodium fluorescein permeability Pe): 0.2 ± 0.1 ×10⁻⁶ cm/s
Papp at 60 min, 10 μM ([1]; IMR90-4 iPSC-derived BMECs co-cultured with primary rat astrocytes, read-out: sodium fluorescein permeability Pe): 0.19 ± 0.01 ×10⁻⁶ cm/s
Papp at 60 min, 10 μM ([1]; isogenic co-culture: CS03iCTRn2-derived BMECs with neurons:astrocytes (1:3), read-out: fluorescein permeability Pe): 0.062 ± 0.011 ×10⁻⁶ cm/s
Papp at 60 min, 10 μM ([1]; monocultured CS03iCTRn2-derived BMECs, read-out: fluorescein permeability Pe): 0.81 ± 0.09 ×10⁻⁶ cm/s
Papp at 60 min, 10 μM ([1]; monocultured IMR90-4 iPSC-derived BMECs, read-out: sodium fluorescein permeability Pe): 0.48 ± 0.03 ×10⁻⁶ cm/s
decrease of fluorescein permeability, isogenic co-culture compared to monoculture [2]: 13 fold
